Measurements reported in ChEMBL document CHEMBL3885861, “Open TG-GATES”.

Species on record: Rattus norvegicus
Assay: Open TG-GATES - Regimen: Daily Repeat
Format: toxicity, organism-based, Sprague-Dawley
Parameters: regimen Daily Repeat, gender Male, age 6 weeks
Details: in vivo, po, route gavage; for APTT / Bas / Eos / Fbg / Ht / Lym / MCHC / MCV / Mono / RBC / Ret / WBC / Hb / Neu: tissue Blood; for KIDNEY_L / KIDNEY_R / KIDNEY_TOTAL: tissue Kidney; for ALP / ALT / AST / BUN / CRE / Ca / Cl / DBIL / GLC / IP / K / PL / RALB / TBIL / TC / TG / TP / gamma-GTP: tissue Plasma
[1] = 0 mg/kg, 72 h, dose level Control, time 3 day
[2] = 0 mg/kg, […], dose level Control, time 7 day
[3] = 0 mg/kg, […], dose level Control, time 14 day
[4] = 0 mg/kg, […], dose level Control, time 28 day

SMILES: CCCCC1C(=O)N(c2ccccc2)N(c2ccccc2)C1=O [PHENYLBUTAZONE]
- TERMINAL_BW [1]: 239.7 g
- APTT [1]: 16.9 s
- Bas [1]: 0%
- Eos [1]: 1%
- Fbg [1]: 233.4 mg/dL
- Ht [1]: 42.7%
- Lym [1]: 81.6%
- MCHC [1]: 33.3%
- MCV [1]: 63.6 fL
- Mono [1]: 5.6%
- RBC [1]: 672.8 x10_4/ul
- Ret [1]: 7.3%
- WBC [1]: 131.2 x10_2/uL
- KIDNEY_L [1]: 1.1 g
- KIDNEY_R [1]: 1.1 g
- KIDNEY_TOTAL [1]: 2.2 g
- ALP [1]: 868 IU/L
- ALT [1]: 35.2 IU/L
- AST [1]: 61 IU/L
- BUN [1]: 17.4 mg/dL
- CRE [1]: 0.6 mg/dL
- Ca [1]: 10.6 mg/dL
- Cl [1]: 105 meq/L
- DBIL [1]: 0 mg/dL
- GLC [1]: 195.2 mg/dL
- IP [1]: 9 mg/dL
- K [1]: 5.1 meq/L
- PL [1]: 170.6 mg/dL
- RALB [1]: 4 g/dL
- TBIL [1]: 0.3 mg/dL
- TC [1]: 86.6 mg/dL
- TG [1]: 136.4 mg/dL
- TP [1]: 6.1 g/dL
- gamma-GTP [1]: 1.6 IU/L
- TERMINAL_BW [2]: 268.9 g
- TERMINAL_BW [3]: 318.1 g
- TERMINAL_BW [4]: 373 g
- APTT [2]: 15.7 s
- Bas [2]: 0%
- Eos [2]: 0.8%
- Fbg [2]: 242.2 mg/dL
- Hb [2]: 13.9 g/dL
- Ht [2]: 42.1%
- Lym [2]: 84.2%
- MCHC [2]: 33.1%
- MCV [2]: 62.4 fL
- Mono [2]: 6.6%
- Neu [2]: 8.8%
- RBC [2]: 674.8 x10_4/ul
- Ret [2]: 5.4%
- WBC [2]: 155.4 x10_2/uL
- APTT [3]: 16.4 s
- Bas [3]: 0%
- Eos [3]: 0.6%
- Fbg [3]: 227.8 mg/dL
- Hb [3]: 15 g/dL
- Ht [3]: 44.8%
- Lym [3]: 84.8%
- MCHC [3]: 33.6%
- MCV [3]: 62.7 fL
- Mono [3]: 4.2%
- Neu [3]: 10.2%
- RBC [3]: 714.8 x10_4/ul
- Ret [3]: 4.4%
- WBC [3]: 131.9 x10_2/uL
- APTT [4]: 16 s
- Bas [4]: 0%
- Eos [4]: 1%
- Fbg [4]: 233 mg/dL
- Hb [4]: 15.7 g/dL
- Ht [4]: 46.9%
- Lym [4]: 82.8%
- MCHC [4]: 33.4%
- MCV [4]: 56.2 fL
- Mono [4]: 4.2%
- RBC [4]: 835.8 x10_4/ul
- Ret [4]: 2.1%
- WBC [4]: 151.8 x10_2/uL
- KIDNEY_L [2]: 1.2 g
- KIDNEY_R [2]: 1.1 g
- KIDNEY_TOTAL [2]: 2.3 g
- KIDNEY_L [3]: 1.2 g
- KIDNEY_R [3]: 1.2 g
- KIDNEY_TOTAL [3]: 2.3 g
- KIDNEY_L [4]: 1.4 g
- KIDNEY_R [4]: 1.4 g
- KIDNEY_TOTAL [4]: 2.7 g
- ALP [2]: 919.6 IU/L
- ALT [2]: 35.6 IU/L
- AST [2]: 69 IU/L
- BUN [2]: 18.8 mg/dL
- CRE [2]: 0.5 mg/dL
- Ca [2]: 10.6 mg/dL
- Cl [2]: 105.4 meq/L
- DBIL [2]: 0.006 mg/dL
- GLC [2]: 210.8 mg/dL
- IP [2]: 8.9 mg/dL
- K [2]: 4.9 meq/L
- RALB [2]: 3.9 g/dL
- TBIL [2]: 0.3 mg/dL
- TC [2]: 74.4 mg/dL
- TG [2]: 112.6 mg/dL
- TP [2]: 6.6 g/dL
- gamma-GTP [2]: 1.8 IU/L
- ALP [3]: 748 IU/L
- ALT [3]: 31.4 IU/L
- AST [3]: 57.8 IU/L
- BUN [3]: 19.6 mg/dL
- CRE [3]: 0.6 mg/dL
- Ca [3]: 10.5 mg/dL
- Cl [3]: 108 meq/L
- DBIL [3]: 0.016 mg/dL
- GLC [3]: 207.4 mg/dL
- IP [3]: 7.9 mg/dL
- K [3]: 4.7 meq/L
- PL [3]: 160.4 mg/dL
- RALB [3]: 4 g/dL
- TBIL [3]: 0.3 mg/dL
- TC [3]: 79.2 mg/dL
- TG [3]: 177.6 mg/dL
- TP [3]: 6.2 g/dL
- gamma-GTP [3]: 1.2 IU/L
- ALP [4]: 692.8 IU/L
- ALT [4]: 33 IU/L
- AST [4]: 62 IU/L
- BUN [4]: 20.2 mg/dL
- CRE [4]: 0.6 mg/dL
- Ca [4]: 10.1 mg/dL
- Cl [4]: 107.6 meq/L
- DBIL [4]: 0.008 mg/dL
- GLC [4]: 200 mg/dL
- IP [4]: 6.8 mg/dL
- K [4]: 4.5 meq/L
- RALB [4]: 3.9 g/dL
- TBIL [4]: 0.3 mg/dL
- TC [4]: 61 mg/dL
- TG [4]: 170.2 mg/dL
- TP [4]: 6.4 g/dL
- gamma-GTP [4]: 2 IU/L
- TERMINAL_BW (20 mg/kg, 72 h, dose level Low, time 3 day): 234.1 g
